Assay results reported in US7345050B2, “Pyrimidine compounds” (AstraZeneca AB, priority 2001, dated 2008).

SMILES	melting point
OC(c1ccccc1)c1ccc(Nc2nccc(-c3cnc4ccccn34)n2)cc1 (racemic) [Example 8, (±)-2-[4-(Hydroxyphenylmethyl)anilino]-4-(imidazo-[1,2-a]-pyridin-3-yl)pyrimidine]	213 to 216 °C
Cc1ccc(C(=O)c2ccc(Nc3nccc(-c4cnc5ccccn45)n3)cc2)cc1 [Example 3, 2-[4-(4-Methylbenzoyl)anilino)-4-(imidazo-[1,2-a]-pyridin-3-yl)pyrimidine]	238.9 to 239.2 °C
N#Cc1ccc(C(=O)c2ccc(Nc3nccc(-c4cnc5ccccn45)n3)cc2)cc1 [Example 4, 2-[4-(4-Cyanobenzoyl)anilino]-4-(imidazo-[1,2-a]-pyridin-3-yl)pyrimidine]	> 230 °C (dec.)
O=C(c1ccc(Nc2nccc(-c3cnc4ccccn34)n2)cc1)c1cccc(Cl)c1 [Example 5, 2-[4-(3-Chlorobenzoyl)anilino]-4-(imidazo-[1,2-a)-pyridin-3-yl)pyrimidine]	194.7 to 196.7 °C
O=C(c1ccc(Nc2nccc(-c3cnc4ccccn34)n2)cc1)c1ccc(N2CCOCC2)cc1 [Example 1, 2-[4-(4-Morpholinobenzoyl)anilino]-4-(imidazo-[1,2-a]-pyridin-3-yl)pyrimidine]	> 237 °C (dec.)
CCOc1cccc(C(=O)c2ccc(Nc3nccc(-c4cnc5ccccn45)n3)cc2)c1 [Example 6, 2-[4-(3-Ethoxybenzoyl)anilino]-4-(imidazo-[1,2-a]-pyridin-3-yl)pyrimidine]	197.3 to 197.5 °C
O=C(c1ccccc1)c1ccc(Nc2nccc(-c3cnc4ccccn34)n2)cc1 [Example 7, 2-(4-Benzoylanilino)-4-(imidazo-[1,2-a]-pyridin-3-yl)pyrimidine]	249 to 255 °C (dec.)
O=C(c1ccc(Nc2nccc(-c3cnc4ccccn34)n2)cc1)c1nccs1 [Example 13, 2-[4-(1,3-Thiazol-2-ylcarbonyl)anilino]-4-(imidazo-[1,2-a]-pyridin-3-yl)pyrimidine]	234 to 235 °C (dec.)
O=C(c1ccc(Nc2nccc(-c3cnc4ccccn34)n2)cc1)c1ccc2cc[nH]c2c1 [Example 11, 2-[4-(1 H-Indol-6-ylcarbonyl)anilino]-4-(imidazo-[1,2-a]-pyridin-3-yl)pyrimidine]	173 to 178 °C (dec.)
O=C(Cc1ccccc1)c1ccc(Nc2nccc(-c3cnc4ccccn34)n2)cc1 [Example 9, 2-[4-(1-Oxo-2-phenylethyl)anilino]-4-(imidazo-[1,2-a]-pyridin-3-yl)pyrimidine]	225 to 228 °C (dec.)
O=C(c1ccccc1)c1cccc(Nc2nccc(-c3cnc4ccccn34)n2)c1 [Example 10, 2-(3-Benzoylanilino)-4-(imidazo-[1,2-a]-pyridin-3-yl)pyrimidine]	237 to 246 °C (dec.)
